These results are taken from patent US7053177B1, “Random peptides that bind to gastro-intestinal tract (GIT) transport receptors and related methods” (Cytogen Corporation, priority 1997, dated 2006).

Data set [1] has as its system fixed Caco-2 cells. Put plainly: Competition ELISA: synthetic peptides versus GST-peptide fusions on fixed Caco-2 cells. The settings on record: peptide from 100 μg/ml serially diluted; GST fusion 10 μg. On the procedure: Caco-2 cells were fixed, treated with phenylhydrazin and blocked as described above. Synthetic peptides (100 μg/ml) were applied in duplicate to Caco-2 cells and serially diluted down the 96-well plate. The corresponding GST-peptide fusion protein (10 μg) was added to each well and the plates were incubated for 2h at room temperature with agitation. Binding of the GST-peptide fusion proteins to the cells was assayed using the ELISA technique described above.

Data set [2] relates to P100 membrane fraction of Caco-2 cells. Kind of data set: Binding of dansylated peptides to P100 fractions (peptide/particle correlation). The settings on record: compared with scrambled PAX2 control. On the procedure: Caco-2 cell membrane (P100) and cytosolic (S100) fractions were prepared using a modification of the method described in Kinsella, B. T., O'Mahony, D. J. and G. A. FitzGerald, 1994, J. Biol. Chem. 269(47): 29914–29919. Confluent Caco-2 cell monolayers (grown in 75 cm^2 flasks for up to 1 week at 37° C. and 5% CO2) were washed twice in Dulbecco's PBS (DPBS) and the cells were harvested by centrifugation at 1000 rpm after treatment with 10 mM EDTA-DPBS. The cells were washed 3 times in DPBS and the final cell pellet was resuspended in 3 volumes of ice cold HED buffer (20 mM HEPES (pH 7.67), 1 mM EGTA, 0.5 mM dithiothreitol, 1 mM phenylmethylsulphonyl fluoride (PMSF)). The cells were allowed to swell for 5 min on ice prior to homogenization for 30 sec. The homogenates were centrifuged at 40,000 rpm for 45 min at 4° C. The supernatant (S100) was removed and the pellet (P100) was resuspended in HEDG buffer (20 mM HEPES (pH 7.67), 1 mM EGTA, 0.5 mM dithiothreitol, 100 mM NaCl, 10% glycerol, 1 mM PMSF). Protein concentrations were determined using the Bradford assay (Bradford, M. M., 1976, Anal. Biochem. 72: 248–254).
Binding of peptide and/or peptide-coated PLGA particles to membrane (P100) and cytosolic (S100) fractions was assessed by detection of the dansyl moiety incorporated in the peptide. Costar ninety six well ELISA plates were coated with S100 and P100 fractions (100 μg/ml in 0.05 M NaHCO3) overnight at 4° C. The plates were blocked with 0.5% bovine serum albumin in DPBS for 1 h at room temperature and washed 3 times in 1% BSA-DPBS. Peptide-coated particles or peptides were dispersed in the same buffer and added to the plates at concentrations in the range 0.0325–0.5 mg/well. […] The plates were incubated for 1 h at room temperature. The wells were washed 3 times in 1% BSA-DPBS and 100 μl of goat anti-mouse IgGλ:HRP antibody (Southern Biotechnology 1060-05; 1:10,000) was added per well. The plates were incubated for 1 h at room temperature. After washing 3 times in 1% BSA-DPBS 100 μl of TMB substrate (3,3′,5′,5-tetramethylbenzidine; Microwell Peroxidase Substrate System (Kirkegaard and Perry Laboratories 50-76-00)) was added and the optical density was measured at 650 nm at various time intervals.
Binding of dansylated peptides to P100 fractions was assessed to determine if peptide binding was predictive of peptide-coated particle binding.

Data set [3] has the same test system. Kind of data set: Dansylated peptide ELISA: relative binding of PAX2 and HAX42 peptides to P100 fractions (ratio to ZElan021). The settings on record: HAX42 peptides, ratio to ZElan021 = 1.00. The method in brief: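 Plates coated overnight at 4 °C with Caco-2 P100 membrane fraction (normally 100 μg/ml, pH 9.6) and blocked with 2% Marvel/PBS were incubated with dansylated peptides. Binding was detected with anti-mouse λ-HRP and TMB, read at 650 nm, and expressed relative to ZElan021.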
(ELISA stands for enzyme-linked immunosorbent assay.)

Data set [4] deals with fixed Caco-2 cells. Kind of data set: Effect of thrombin cleavage on binding of GST-peptide fusions to fixed Caco-2 cells. The following applies: in words. As to the method: Binding of intact and thrombin-cleaved GST-peptide fusions to fixed Caco-2 cells was compared.
Thirty micrograms of each GST-peptide was treated with bovine thrombin (1 μ/ml; 0.4 NIH units; Sigma CN.T9681) for 18h at room temperature in 20 mM Tris-HCl pH8.0, 150 mM NaCl, 2.5 mM CaCl2. Controls were similarly treated without addition of thrombin. Ten micrograms of each GST-peptide fusion was removed for PAGE analysis, and 10 μg of fusions were added in duplicate to the fixed Caco-2 cells before 5-fold serial dilutions (1% BPT diluent). The fusions were allowed to bind for 1h at room temperature. Following 6 washes with 1% BPT, binding was assayed by ELISA.

The subject of data set [5] is P100 membrane fraction of Caco-2 cells. Kind of data set: GST-PAX2 peptides: relative binding to P100 fractions (ratio to GST-HAX42). The following applies: GST-peptide 20 μg/ml; binding to plastic subtracted; GST-HAX42 = 1.00. As to the method:
The peptides and proteins were analyzed by a dansylated peptide ELISA method in which 96 well plates were coated overnight at 4° C. with 100 μl/well coating protein (normally 100 μg/ml P100 membrane fraction) in 0.05M carbonate buffer pH9.6. Nonspecific binding was blocked using 200 μl/well, 2% Marvel/PBS for 2 hours at 37° C. prior to incubation with dansylated peptides. The plates were washed three times with PBS/0.05% Tween 20 and after each subsequent incubation step. […] A buffer blank control was included to ensure that background binding to plastic was not due to the antibodies used in the assay system. […] The plates were then incubated with an anti-mouse λ-HRP conjugated antibody (Southern Biotech 1060-05) at a 1:10,000 dilution in blocking solution, 100 μl/well for 1 hour at room temperature. Plates were developed using 75 μl/well Bionostics TMB substrate and incubated for approximately 10 minutes. The developing reaction was stopped using Bionostics Red Stop solution (25 μl/well), and the optical density of the plates was read at 650 nm.
After subtraction of the GST-peptide binding to plastic from P100 binding values, the binding of GST-PAX2 peptides were represented as a ratio of GST-HAX42 binding to P100, which was given the arbitrary value of 1.00. The following ratios were determined from binding to P100 of GST-peptides at a peptide concentration of 20 μg/ml. […]

Another data set concerns the target BSA (Bos taurus, UniProt P02769). Kind of data set: Receptor ELISA of phage on BSA (background control protein). It is filed as binding. The following applies: Table 4; phage panned on hPEPT1. On the procedure:
96 well plates were coated overnight with GIT receptor, BSA and, optionally, IDE (insulin degrading enzyme, an irrelevant His-fusion protein)or hTF. The plates were blocked for one hour with 0.5% BSA-PBS. After clarification, the amplified phage were diluted 1:100 in 1% BSA plus 0.05% Tween 20 in PBS and added to the plates. Following incubation of the plates on a rotator for 1 to 2 hours, the plates were washed 5 times with 1% BSA plus 0.05% Tween 20 in PBS. Dilute anti-M13-HRP conjugate (anti-M13 antibody linked to horse radish peroxidase (HRP)) was added to all the wells and the plate was incubated for one hour on a rotator. After the plates were washed 5 times, as described above, TMB substrate was added to the wells. The plates were read at 650 nm absorbance.

Data set [6] concerns rat gastro-intestinal tract (closed loop). Put plainly: Transport of preselected phage libraries in rat closed loop, detected by oligonucleotide hybridization/autoradiography. The following applies: hPEPT1 pool; in words.
Data set [7] in a line: Animal Study 3: intraduodenal open loop leuprolide acetate particles, plasma leuprolide. It is filed as in vivo, Wistar rats. The settings on record: intraduodenal 600 μg vs 12.5 μg subcutaneous. As to the method:
An intraduodenal open loop model study was carried out on Wistar rats (300–350 g). Group 1 was administered leuprolide acetate (12.5 μg) subcutaneously. Group 2 was administered intraduodenally uncoated leuprolide acetate particles (600 μg, 1.5 ml).

Ends that are not written are not given here. * marks the point of attachment. Dansyl = CN(C)c1cccc2c(S(=O)(=O)*)cccc12

Chain of BSA (P02769 25-607): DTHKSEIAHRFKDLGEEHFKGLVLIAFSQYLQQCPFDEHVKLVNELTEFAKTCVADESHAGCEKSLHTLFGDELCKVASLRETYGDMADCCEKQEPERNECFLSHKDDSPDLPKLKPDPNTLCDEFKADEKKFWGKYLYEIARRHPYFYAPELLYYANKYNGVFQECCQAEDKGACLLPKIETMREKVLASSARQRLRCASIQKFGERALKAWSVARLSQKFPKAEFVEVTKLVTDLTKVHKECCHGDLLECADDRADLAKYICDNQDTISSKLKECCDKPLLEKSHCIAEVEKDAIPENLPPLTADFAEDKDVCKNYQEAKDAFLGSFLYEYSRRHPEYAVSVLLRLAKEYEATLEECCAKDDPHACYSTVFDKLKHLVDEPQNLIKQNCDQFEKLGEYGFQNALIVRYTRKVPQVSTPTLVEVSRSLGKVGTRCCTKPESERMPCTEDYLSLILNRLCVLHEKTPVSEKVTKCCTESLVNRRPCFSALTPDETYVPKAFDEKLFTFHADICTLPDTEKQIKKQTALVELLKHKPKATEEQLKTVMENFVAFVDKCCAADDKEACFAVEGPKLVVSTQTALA

For the substance “H-K(Dansyl)SDHALGTNLRSDNAKEPGDYNCCGNGNSTGRKVFNRRRPSAIPT-NH2 (cysteines drawn unpaired) [ZElan021]”, the “Inhibition of GST-HAX42 binding to fixed Caco-2 cells” value with fixed Caco-2 cells [1] is listed as “not inhibited”. Also, the entries for the “Binding of dansylated peptide to P100 fraction” value in data set [2] (initial assay) and in data set [2] (repeat assay) were “strong binding” and “significant binding”, respectively. In data set [3] (20 μg/ml), the “Binding value at 20 μg/ml” value is 1.00. Moreover, the “Binding value at 25 μg/ml” value in data set [3] (first column), in data set [3] (second column) and in data set [3] (third column) was 1.00 in each case. Besides, the “Binding value at 50 μg/ml” value in data set [3] (first column) and in data set [3] (second column) was 1.00 in each case.
With “GST-PAX2-106: GST fusion of truncated peptide derived from PAX2, SEQ ID NO: 188 (TNAKHSSHNRRLRTRSRPN; also: GST fusion)”, the “Effect of cleavage with thrombin on detection of binding to fixed Caco-2 cells” value in the data set on fixed Caco-2 cells [4] is “significantly reduced”. For the same substance, the “Value (binding to P100 as ratio of GST-HAX42 binding)” value in data set [5] is listed as 2.71.
Turning to “SARDSGPAEDGSRAVRLNGVENANTRKSSRSNPRGRRHP (not fully specified) [Peptide P31]”, in the data set with BSA, the BSA amounted to 0.075 OD. Also, in data set [6], the “Binding to / presence in the intestine samples” value is “preferential binding”, the “Presence in the portal circulation” value is given as “found” and the “Presence in the systemic circulation” value was “found in the systemic circulation”. For the same substance, in data set [7], the “Plasma levels of leuprolide relative to subcutaneous injection” value is listed as “enhanced plasma levels of leuprolide”.
